Test results taken from patent US8835395B2, “Protein peptide hydrogels” (Kansas State University Research Foundation, priority 2010, dated 2014).
Where a SMILES comes first, the peptide text is derived from it.

Test: Solubility of peptide in neutral water
Type: physicochemical
Conditions: neutral water without any pH adjustment

Solubility in water: soluble
SMILES: CC[C@H](C)[C@H](NC(=O)[C@H](CC(C)C)NC(=O)[C@@H](N)Cc1ccccc1)C(=O)N[C@H](C(=O)N[C@H](C(=O)N1CCC[C@H]1C(=O)N1CCC[C@@H]1C(=O)NCC(=O)N1CCC[C@H]1C(=O)NCC(=O)NCC(=O)N[C@@H](CC(=O)O)C(=O)NCC(=O)N1CCC[C@H]1C(=O)NCC(=O)NCC(=O)N[C@@H](CC(=O)O)C(=O)O)[C@@H](C)CC)C(C)C [h5PP^De, FLIVI-PP^D-GPGGDGPGGD] (HELM PEPTIDE1{F.L.I.V.I.P.[dP].G.P.G.G.D.G.P.G.G.D}$$$$V2.0)
